From DBAASP
Converted amounts (≈) assume the structure as drawn. “And” between values parts separate entries of the source, which are not always exact repeats. Equal values may be shown once. One block for each compound: values may come before it.

Columns and labels:
Assay in all cases: ≥ marks a high value that may be exact or a test limit, other limits are often not marked, values filed in µg/mL are converted to µM
Pseudomonas aeruginosa = system: Pseudomonas aeruginosa
[1] = system: Aspergillus fumigatus KCTC 6145
Fusarium verticillioides = system: Fusarium verticillioides
Salmonella typhimurium = system: Salmonella typhimurium
Saccharomyces cerevisiae = system: Saccharomyces cerevisiae
[2] = system: Escherichia coli O157:H7 ATCC 43895
Staphylococcus aureus = system: Staphylococcus aureus
[3] = system: Staphylococcus epidermidis
Proteus vulgaris = system: Proteus vulgaris
Botrytis cinerea = system: Botrytis cinerea
[4] = system: Candida albicans KCTC 7270
[5] = system: Aspergillus flavus KCTC 9471
Trichosporon beigelii = system: Trichosporon beigelii
Bacillus subtilis = system: Bacillus subtilis
Escherichia coli = system: Escherichia coli
[6] = system: Listeria monocytogenes KCTC 3710
[7] = system: Fusarium solani MTCC 10158
[8] = system: Proteus vulgaris KCTC 2433
[9] = system: Listeria monocytogenes ATCC 3710
[10] = system: Pseudomonas aeruginosa ATCC 15692
[11] = system: Staphylococcus aureus ATCC 29213
[12] = system: Escherichia coli ATCC 25922
[13] = system: Bacillus subtilis KCTC 1998
[14] = system: Candida albicans ATCC 10231
[15] = system: Enterococcus faecalis ATCC 29212
[16] = system: Pseudomonas aeruginosa ATCC 27853
[17] = system: Aspergillus brasiliensis ATCC 16404
[18] = system: Escherichia coli K-12 594
[19] = system: Staphylococcus aureus ATCC 6538P
[20] = system: Staphylococcus aureus SR1550
[21] = system: Micrococcus luteus DSM 20030
[22] = system: Salmonella typhimurium TA100
[23] = system: Micrococcus luteus ATCC 49732
[24] = system: Staphylococcus aureus ATCC 12600
[25] = system: Escherichia coli ATCC 11775
[26] = system: Candida albicans ATCC 14053
[27] = system: Staphylococcus aureus ATCC 25923
[28] = system: Candida albicans NCTC 3179
[29] = system: Aspergillus niger CECT 2694
[30] = system: Penicillium expansum EPS 26
[31] = system: Fusarium oxysporum f. sp. lycopersici ATCC 201829
[32] = system: Rhizopus stolonifer CECT 2344

Compound: CC[C@H](C)[C@H](NC(=O)[C@H](CCCCN)NC(=O)CNC(=O)[C@@H]1CCCN1C(=O)[C@H](Cc1cnc[nH]1)NC(=O)[C@H](CC(C)C)NC(=O)[C@H](CC(C)C)NC(=O)[C@H](Cc1ccc(O)cc1)NC(=O)[C@H](CS)NC(=O)CN)C(=O)N[C@@H](CS)C(=O)N[C@@H](Cc1ccc(O)cc1)C(=O)O [GCYLLHPGKICY]
MIC [14]: > 64 µM
MIC [15]: > 64 µM
MIC [11]: > 64 µM
MIC [16]: > 64 µM
MIC [12]: > 64 µM
MIC [17]: ≥ 64 µM

Compound: CC(C)C[C@H](NC(=O)[C@H](Cc1cnc[nH]1)NC(=O)[C@H](CC(C)C)NC(=O)[C@H](CC(C)C)NC(=O)[C@H](CC(C)C)NC(=O)[C@H](CC(C)C)NC(=O)[C@H](CC(C)C)NC(=O)[C@H](Cc1cnc[nH]1)NC(=O)[C@H](CC(C)C)NC(=O)[C@@H](N)Cc1cnc[nH]1)C(=O)N[C@@H](Cc1cnc[nH]1)C(N)=O [HLHLLLLLHLH]
MIC [18]: 25.8 µM (≈ 35 µg/mL)
MIC [19]: 11.8 µM (≈ 16 µg/mL)
MIC [20]: 25.8 µM (≈ 35 µg/mL)

Compound: CSCC[C@H](NC(=O)[C@@H](NC(=O)[C@@H](N)[C@@H](C)O)[C@@H](C)O)C(=O)N1CCC[C@H]1C(=O)N[C@@H](CC(C)C)C(=O)N[C@@H](Cc1c[nH]c2ccccc12)C(=O)O [TTMPLW]
MIC [23]: ≥ 64 µM
MIC [24]: ≥ 193 µM
MIC [25]: ≥ 193 µM
MIC [26]: ≥ 144 µM

Compound: CC[C@H](C)[C@H](NC(=O)[C@H](CCCCN)NC(=O)[C@H](CCCCN)NC(=O)[C@H](Cc1ccccc1)NC(=O)[C@H](CC(C)C)NC(=O)[C@H](CCCCN)NC(=O)[C@@H](N)Cc1c[nH]c2ccccc12)C(=O)N[C@@H](CC(C)C)C(=O)N[C@@H](CCCCN)C(=O)N[C@H](C(=O)N[C@@H](CC(C)C)C(=O)O)C(C)C [WKLFKKILKVL]
MIC [29]: 22.4 µM (≈ 31.7 µg/mL)
MIC [30]: ≥ 100 µM
MIC [31]: 22.4 µM (≈ 31.7 µg/mL)
MIC [32]: ≥ 100 µM

Continued, values first:

MIC (Pseudomonas aeruginosa): 6.25 µM (≈ 14.8 µg/mL)
MIC [1]: ≥ 35.4 µM
MIC (Fusarium verticillioides): 12.5 µM (≈ 29.6 µg/mL)
MIC (Salmonella typhimurium): 0.39 µM (≈ 0.925 µg/mL)
MIC (Saccharomyces cerevisiae): 25 µM (≈ 59.3 µg/mL)
MIC [2]: 6.25 µM (≈ 14.8 µg/mL)
MIC (Staphylococcus aureus): 3.13 µM (≈ 7.42 µg/mL)
MIC [3]: 6.25 µM (≈ 14.8 µg/mL)
MIC (Proteus vulgaris): 3.13 µM (≈ 7.42 µg/mL)
MIC (Botrytis cinerea): 12.5 µM (≈ 29.6 µg/mL)
MIC [4]: 25 µM (≈ 59.3 µg/mL)
MIC [5]: ≥ 50 µM
MIC (Trichosporon beigelii): 3.13 µM (≈ 7.42 µg/mL)
MIC (Bacillus subtilis): 1.56 µM (≈ 3.7 µg/mL)
MIC (Escherichia coli): 3.13 µM (≈ 7.42 µg/mL)
MIC [6]: 0.78 µM (≈ 1.85 µg/mL)
Compound: CC[C@H](C)[C@H](NC(=O)[C@H](CCCCN)NC(=O)[C@H](CO)NC(=O)[C@H](Cc1ccccc1)NC(=O)[C@H](CC(C)C)NC(=O)[C@H](CCCCN)NC(=O)[C@H](CCC(=O)O)NC(=O)[C@H](CC(C)C)NC(=O)[C@H](CCCN=C(N)N)NC(=O)[C@H](CCCCN)NC(=O)[C@H](Cc1ccccc1)NC(=O)[C@@H](NC(=O)[C@H](CCCCN)NC(=O)[C@H](CCCCN)NC(=O)[C@H](C)N)C(C)C)C(=O)N[C@@H](Cc1ccccc1)C(=O)N[C@@H](CC(N)=O)C(=O)N[C@@H](Cc1ccccc1)C(=O)N[C@@H](CCCCN)C(N)=O [AKKVFKRLEKLFSKIFNFK]

MIC [7]: 22.4 µM and ≥ 50 µM
Compound: CC(C)C[C@H](NC(=O)[C@H](C)NC(=O)[C@H](CCCCN)NC(=O)[C@H](CC(C)C)NC(=O)[C@H](CCCCN)NC(=O)[C@H](CCCN=C(N)N)NC(=O)[C@H](CCCN=C(N)N)NC(=O)[C@H](Cc1c[nH]c2ccccc12)NC(=O)[C@H](C)N)C(=O)N[C@@H](C)C(=O)N1CCC[C@H]1C(=O)N[C@@H](C)C(=O)N[C@@H](CCCCN)C(=O)N[C@@H](CCCCN)C(=O)N[C@@H](C)C(=O)N[C@@H](CCCCN)C(=O)N[C@H](C(=O)O)C(C)C [AWRRKLKALAPAKKAKV]

MIC [8]: 4 µM and 8 µM
MIC [9]: 8 µM and 4 µM
MIC [10]: ≥ 32 µM and 16 µM
MIC [11]: 8 µM and 16 µM
MIC [12]: 2 µM and 4 µM
MIC [13]: 4 µM (≈ 10.2 µg/mL)
Compound: CC[C@H](C)[C@H](NC(=O)[C@H](Cc1cnc[nH]1)NC(=O)[C@H](Cc1cnc[nH]1)NC(=O)[C@@H](NC(=O)[C@H](CC(C)C)NC(=O)[C@H](Cc1cnc[nH]1)NC(=O)CNC(=O)[C@H](CCCCN)NC(=O)CNC(=O)[C@H](Cc1cnc[nH]1)NC(=O)[C@H](CCCCN)NC(=O)[C@@H](NC(=O)[C@H](CO)NC(=O)CNC(=O)[C@H](CCCCN)NC(=O)[C@H](Cc1ccccc1)NC(=O)[C@H](CCCN=C(N)N)NC(=O)[C@H](CCCCN)NC(=O)[C@@H](N)Cc1ccccc1)C(C)C)C(C)C)C(=O)NCC(=O)N[C@H](C(=O)N[C@@H](C)C(=O)N[C@@H](CC(C)C)C(N)=O)C(C)C [FKRFKGSVKHGKGHLVHHIGVAL]

MIC [21]: 13.5 µM (≈ 40.8 µg/mL)
MIC [22]: 12.6 µM (≈ 38.3 µg/mL)
Compound: CC(C)C[C@H](NC(=O)CNC(=O)[C@H](CCCCN)NC(=O)[C@H](CS)NC(=O)[C@@H](NC(=O)[C@H](CCCN=C(N)N)NC(=O)[C@H](CCCCN)NC(=O)[C@H](CC(N)=O)NC(=O)[C@H](CC(N)=O)NC(=O)[C@H](CCC(N)=O)NC(=O)[C@H](CCCN=C(N)N)NC(=O)[C@@H](NC(=O)[C@H](CS)NC(=O)[C@@H](N)CCCCN)C(C)C)C(C)C)C(=O)N[C@@H](CCCN=C(N)N)C(=O)N[C@@H](CCCCN)C(=O)N[C@@H](CCCN=C(N)N)C(=O)N[C@@H](CC(C)C)C(=O)N[C@@H](CCCN=C(N)N)C(=O)N[C@@H](CCCCN)C(=O)N[C@@H](Cc1ccccc1)C(=O)N[C@@H](CCCN=C(N)N)C(=O)N[C@@H](CC(N)=O)C(=O)N[C@@H](CCCCN)C(N)=O [KCVRQNNKRVCKGLRKRLRKFRNK]

MIC [27]: 1.66 µM (≈ 4.8 µg/mL)
MIC [28]: 24.8 µM (≈ 72 µg/mL)
MIC [12]: 1.97 µM (≈ 5.7 µg/mL)
Compound: CC[C@H](C)[C@H](NC(=O)[C@H](CCCCN)NC(=O)[C@@H](NC(=O)[C@@H](NC(=O)[C@H](C)NC(=O)[C@@H]1CCCN1C(=O)[C@H](CC(C)C)NC(=O)[C@H](Cc1c[nH]c2ccccc12)NC(=O)[C@@H](N)[C@@H](C)O)C(C)C)[C@@H](C)CC)C(=O)N[C@@H](CCC(N)=O)C(=O)N[C@@H](C)C(=O)N[C@@H](Cc1cnc[nH]1)C(=O)N[C@@H](Cc1c[nH]c2ccccc12)C(=O)N[C@@H](CCCN=C(N)N)C(=O)NCC(=O)N[C@@H](Cc1ccc(O)cc1)C(=O)N[C@@H](CCCN=C(N)N)C(=O)N[C@@H](CCC(N)=O)C(=O)N[C@@H](CCCN=C(N)N)C(=O)N[C@@H](CCCCN)C(=O)N[C@H](C(=O)N[C@@H](Cc1ccc(O)cc1)C(=O)N[C@@H](CC(C)C)C(=O)O)[C@@H](C)CC [TWLPAVIKIQAHWRGYRQRKIYL]
